Calls of active or inactive are those of the source. The calls are words filed in the database; no cut-off is given here.
Experiments:
[1] = molecular target: Serine/threonine-protein kinase B-raf (Homo sapiens) (UniProt P15056); test: Inhibition of recombinant human BRAF (416 to end residues) at 10 uM using myelin basic protein as substrate after 40 mins in presence of [gamma33P]ATP by scintillation counting method relative to control
Homo sapiens [2] = organism: Homo sapiens; test: Inhibition of recombinant human Plk4 S34T mutant (1 to 273 residues) at 10 uM using casein as substrate measured after 120 mins in presence of [gamma33P]ATP by scintillation counting method relative to control
[3] = molecular target: Serine/threonine-protein kinase Chk2 (Homo sapiens) (UniProt O96017); test: Inhibition of recombinant human CHK2 (5 to end residues) at 10 uM using KKKVSRSGLYRSPSMPENLNRPR as substrate measured after 40 mins in presence of [gamma33P]ATP by scintillation counting method relative to control
Serine/threonine-protein kinase Chk2 (Homo sapiens), sequence (O96017 whole entry): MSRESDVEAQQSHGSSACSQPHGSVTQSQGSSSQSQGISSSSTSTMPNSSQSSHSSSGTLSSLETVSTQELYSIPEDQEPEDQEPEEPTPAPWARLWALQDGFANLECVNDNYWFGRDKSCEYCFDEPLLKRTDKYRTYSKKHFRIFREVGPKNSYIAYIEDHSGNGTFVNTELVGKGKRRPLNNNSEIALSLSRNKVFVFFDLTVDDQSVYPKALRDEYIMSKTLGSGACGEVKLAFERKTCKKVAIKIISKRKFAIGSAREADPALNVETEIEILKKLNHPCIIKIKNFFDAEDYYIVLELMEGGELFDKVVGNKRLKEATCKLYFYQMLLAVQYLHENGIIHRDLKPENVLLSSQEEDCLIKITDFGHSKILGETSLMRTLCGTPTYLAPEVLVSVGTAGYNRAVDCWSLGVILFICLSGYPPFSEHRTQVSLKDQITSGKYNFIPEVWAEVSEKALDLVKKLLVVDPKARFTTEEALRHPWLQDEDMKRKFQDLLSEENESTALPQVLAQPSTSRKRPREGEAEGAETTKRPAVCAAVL

[4] = molecular target: Vascular endothelial growth factor receptor 2 (Homo sapiens) (UniProt P35968); test: Inhibition of recombinant human KDR (790 to end residues) at 10 uM using myelin basic protein as substrate measured after 40 mins in presence of [gamm33P]ATP by scintillation counting method relative to control
Vascular endothelial growth factor receptor 2 (Homo sapiens), sequence (P35968 whole entry, the tested form may be a part): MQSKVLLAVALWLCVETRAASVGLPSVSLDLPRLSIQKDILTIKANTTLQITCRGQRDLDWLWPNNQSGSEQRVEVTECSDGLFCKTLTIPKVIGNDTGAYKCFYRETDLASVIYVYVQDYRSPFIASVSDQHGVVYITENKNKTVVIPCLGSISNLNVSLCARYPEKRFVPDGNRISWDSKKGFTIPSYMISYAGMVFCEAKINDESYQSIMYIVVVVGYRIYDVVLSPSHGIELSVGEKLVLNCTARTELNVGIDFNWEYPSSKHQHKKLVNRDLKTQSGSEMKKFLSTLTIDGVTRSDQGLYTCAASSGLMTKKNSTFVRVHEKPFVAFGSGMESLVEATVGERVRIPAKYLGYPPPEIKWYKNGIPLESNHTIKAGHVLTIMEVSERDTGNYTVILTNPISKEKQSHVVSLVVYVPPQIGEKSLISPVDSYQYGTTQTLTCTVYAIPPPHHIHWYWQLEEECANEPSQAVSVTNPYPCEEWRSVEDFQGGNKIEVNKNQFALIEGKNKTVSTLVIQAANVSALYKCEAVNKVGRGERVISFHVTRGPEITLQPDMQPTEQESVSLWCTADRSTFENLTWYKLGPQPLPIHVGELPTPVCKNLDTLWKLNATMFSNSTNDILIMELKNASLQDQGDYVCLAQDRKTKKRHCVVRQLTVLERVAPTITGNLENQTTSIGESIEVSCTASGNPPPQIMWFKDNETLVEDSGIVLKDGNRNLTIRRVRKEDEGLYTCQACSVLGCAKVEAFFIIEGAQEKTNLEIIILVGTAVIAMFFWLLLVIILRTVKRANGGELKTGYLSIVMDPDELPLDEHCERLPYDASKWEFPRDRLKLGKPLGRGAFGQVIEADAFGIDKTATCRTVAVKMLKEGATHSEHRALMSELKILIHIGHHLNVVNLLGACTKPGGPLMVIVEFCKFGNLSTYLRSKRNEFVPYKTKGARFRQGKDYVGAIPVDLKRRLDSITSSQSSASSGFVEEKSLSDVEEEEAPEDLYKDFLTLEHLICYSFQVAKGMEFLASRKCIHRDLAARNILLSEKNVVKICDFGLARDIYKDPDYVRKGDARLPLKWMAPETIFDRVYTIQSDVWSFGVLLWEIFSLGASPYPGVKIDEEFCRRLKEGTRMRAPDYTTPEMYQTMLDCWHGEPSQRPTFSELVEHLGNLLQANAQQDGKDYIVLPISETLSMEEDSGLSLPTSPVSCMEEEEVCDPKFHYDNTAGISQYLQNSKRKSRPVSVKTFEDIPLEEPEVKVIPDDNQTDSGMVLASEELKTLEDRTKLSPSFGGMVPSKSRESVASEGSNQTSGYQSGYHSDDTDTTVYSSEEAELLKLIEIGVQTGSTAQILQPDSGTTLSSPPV

[5] = molecular target: Serine/threonine-protein kinase 24 (Homo sapiens) (UniProt Q9Y6E0); test: Inhibition of recombinant human MST3 (1 to 304 residues) at 10 uM using ERMRPRKRQGSVRRRV as substrate measured after 40 mins in presence of [gamma33P]ATP by scintillation counting method relative to control
Serine/threonine-protein kinase 24 (Homo sapiens), sequence (Q9Y6E0 whole entry, looked up, the tested form may be a part): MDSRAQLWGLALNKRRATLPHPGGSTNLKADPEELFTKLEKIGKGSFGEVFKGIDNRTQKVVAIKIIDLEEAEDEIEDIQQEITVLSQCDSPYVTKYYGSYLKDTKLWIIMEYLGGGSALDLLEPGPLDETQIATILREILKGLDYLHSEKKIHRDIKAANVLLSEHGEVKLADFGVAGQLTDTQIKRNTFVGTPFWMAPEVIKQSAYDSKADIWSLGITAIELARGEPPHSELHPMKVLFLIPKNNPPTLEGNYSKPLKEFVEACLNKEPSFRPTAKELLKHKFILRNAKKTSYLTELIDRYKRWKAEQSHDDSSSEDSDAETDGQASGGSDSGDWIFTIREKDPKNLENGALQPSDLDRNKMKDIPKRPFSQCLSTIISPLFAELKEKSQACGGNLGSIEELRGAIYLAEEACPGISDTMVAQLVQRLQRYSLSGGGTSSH

[6] = molecular target: Fatty acid-binding protein, heart (Homo sapiens) (UniProt P05413); test: Binding affinity to FABP3 (unknown origin) at 1:1 ratio by fluorescence based thermal shift assay
Fatty acid-binding protein, heart (Homo sapiens), sequence (P05413 2-133 limits assumed): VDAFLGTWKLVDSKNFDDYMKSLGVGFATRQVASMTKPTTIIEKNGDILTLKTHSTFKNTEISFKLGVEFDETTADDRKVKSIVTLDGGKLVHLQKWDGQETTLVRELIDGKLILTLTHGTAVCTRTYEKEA

Homo sapiens [7] = organism: Homo sapiens; test: Inhibition of TEAD transcriptional activity in human HCT116 cells assessed as reduction in CTGF expression by qRT-PCR analysis; type: cell-based
[8] = molecular target: Serine/threonine-protein kinase STK11 (Homo sapiens) (UniProt Q15831); test: Inhibition of recombinant full-length human LKB1 at 10 uM using LSNLYHQGKFLQTFCGSPLYRRR as substrate measured after 40 mins in presence of [gamm33P]ATP by scintillation counting method relative to control
[9] = molecular target: Serine/threonine-protein kinase 3 (Homo sapiens) (UniProt Q13188); test: Inhibition of recombinant full-length human MST2 (2 to end residues) at 10 uM using myelin basic protein as substrate measured after 40 mins in presence of [gamma33P]ATP by scintillation counting method relative to control
[10] = molecular target: Ephrin type-A receptor 5 (Homo sapiens) (UniProt P54756); test: Inhibition of human EPHA5 (655 to 956 residues) using poly (Glu, Tyr) 4:1 as substrate at 10 uM after 40 mins in presence of [gamma-33P]-ATP by scintillation counting relative to control
[11] = molecular target: N-lysine methyltransferase SMYD2 (Homo sapiens) (UniProt Q9NRG4); test: Inhibition of human SMYD2 at 10 uM relative to control
N-lysine methyltransferase SMYD2 (Homo sapiens), sequence (Q9NRG4 whole entry, the tested form may be a part): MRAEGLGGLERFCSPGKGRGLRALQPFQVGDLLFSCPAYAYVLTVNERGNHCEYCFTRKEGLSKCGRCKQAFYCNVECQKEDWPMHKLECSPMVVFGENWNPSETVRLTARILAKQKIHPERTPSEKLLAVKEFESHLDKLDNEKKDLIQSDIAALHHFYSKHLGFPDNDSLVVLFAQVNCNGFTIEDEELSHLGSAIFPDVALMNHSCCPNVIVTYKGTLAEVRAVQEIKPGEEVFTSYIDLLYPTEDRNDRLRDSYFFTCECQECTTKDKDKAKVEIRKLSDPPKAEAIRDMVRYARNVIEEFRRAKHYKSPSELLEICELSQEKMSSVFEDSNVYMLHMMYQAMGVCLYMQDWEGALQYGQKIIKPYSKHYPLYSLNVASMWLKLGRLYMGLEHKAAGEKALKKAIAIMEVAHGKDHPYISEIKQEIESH

Saccharomyces cerevisiae = test: Inhibition of recombinant fungi CK1 (2 to 298 residues) at 10 uM using KRRRALS(p)VAS as substrate incubated for 40 mins in presence of [gamma-33P]-ATP by scintillation counting method relative to control
[12] = molecular target: Tyrosine-protein kinase ABL1 (Homo sapiens) (UniProt P00519); test: Inhibition of human Abl (27 to end residues) at 10 uM using EAIYAAPFAKKK as substrate after 40 mins in presence of [gamma33P]ATP by scintillation counting method relative to control
[13] = tested on: CDK18/Cyclin Y (Homo sapiens), Q07002+Q8ND76 [T166M]; test: Inhibition of recombinant full length human cyclinY/CDK18 T166M mutant at 10 uM using YRRAAVPPSPSLS as substrate measured after 40 mins in presence of [gamma33P]ATP by scintillation counting method relative to control; type: protein-complex assay
[14] = molecular target: Cyclin-dependent kinase 13/Cyclin-K (Homo sapiens) (UniProt Q14004+O75909); test: Inhibition of full-length recombinant human CDK13/cyclinK at 10 uM using RSRSRSRSRSRSRSR as substrate after 120 mins by in presence of [gamma33P]ATP by scintillation counting method relative to control; type: protein-complex assay
[15] = molecular target: Mitogen-activated protein kinase 14 (Homo sapiens) (UniProt Q16539); test: Inhibition of recombinant full-length human SAPK2a at 10 uM using myelin basic protein as substrate measured after 40 mins in presence of [gamma33P]ATP by scintillation counting method relative to control
Mitogen-activated protein kinase 14 (Homo sapiens), sequence (Q16539 whole entry, the tested form may be a part): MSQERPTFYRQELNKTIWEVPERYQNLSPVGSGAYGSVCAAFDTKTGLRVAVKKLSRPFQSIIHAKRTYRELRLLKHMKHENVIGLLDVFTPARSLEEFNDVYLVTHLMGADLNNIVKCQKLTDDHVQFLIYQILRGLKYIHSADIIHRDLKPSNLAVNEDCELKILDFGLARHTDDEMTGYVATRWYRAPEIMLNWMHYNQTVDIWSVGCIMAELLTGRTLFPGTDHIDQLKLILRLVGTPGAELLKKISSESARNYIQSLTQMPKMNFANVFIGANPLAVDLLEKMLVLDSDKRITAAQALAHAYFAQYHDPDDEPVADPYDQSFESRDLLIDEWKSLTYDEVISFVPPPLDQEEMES

[16] = molecular target: Mitogen-activated protein kinase kinase kinase 7 (Homo sapiens) (UniProt O43318); test: Inhibition of recombinant human TAK1 (1 to 303 residues) at 10 uM using casein as substrate measured after 40 mins in presence of [gamma33P]ATP by scintillation counting method relative to control
Mitogen-activated protein kinase kinase kinase 7 (Homo sapiens), sequence (O43318 whole entry, the tested form may be a part): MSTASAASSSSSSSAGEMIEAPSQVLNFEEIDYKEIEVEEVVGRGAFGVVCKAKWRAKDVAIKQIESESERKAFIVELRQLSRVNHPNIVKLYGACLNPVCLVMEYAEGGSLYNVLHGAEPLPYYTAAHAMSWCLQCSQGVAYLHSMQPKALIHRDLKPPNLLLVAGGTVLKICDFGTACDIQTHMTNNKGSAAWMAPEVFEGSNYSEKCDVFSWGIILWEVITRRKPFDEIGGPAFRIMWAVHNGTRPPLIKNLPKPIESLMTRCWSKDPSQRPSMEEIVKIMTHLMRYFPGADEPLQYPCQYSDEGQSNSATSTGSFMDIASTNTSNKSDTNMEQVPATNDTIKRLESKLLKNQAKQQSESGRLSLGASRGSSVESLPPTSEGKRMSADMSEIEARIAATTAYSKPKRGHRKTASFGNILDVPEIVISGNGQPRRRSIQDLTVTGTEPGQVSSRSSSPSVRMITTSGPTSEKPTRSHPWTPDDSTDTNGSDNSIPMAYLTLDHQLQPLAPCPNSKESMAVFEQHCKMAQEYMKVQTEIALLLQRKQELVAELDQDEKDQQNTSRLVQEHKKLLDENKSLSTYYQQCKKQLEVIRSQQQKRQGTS

[17] = molecular target: Beta-adrenergic receptor kinase 1 (Homo sapiens) (UniProt P25098); test: Inhibition of full length recombinant human GRK2 at 10 uM using casein as substrate after 40 mins in presence of [gamma33P]ATP by scintillation counting method relative to control
Beta-adrenergic receptor kinase 1 (Homo sapiens), sequence (P25098 whole entry): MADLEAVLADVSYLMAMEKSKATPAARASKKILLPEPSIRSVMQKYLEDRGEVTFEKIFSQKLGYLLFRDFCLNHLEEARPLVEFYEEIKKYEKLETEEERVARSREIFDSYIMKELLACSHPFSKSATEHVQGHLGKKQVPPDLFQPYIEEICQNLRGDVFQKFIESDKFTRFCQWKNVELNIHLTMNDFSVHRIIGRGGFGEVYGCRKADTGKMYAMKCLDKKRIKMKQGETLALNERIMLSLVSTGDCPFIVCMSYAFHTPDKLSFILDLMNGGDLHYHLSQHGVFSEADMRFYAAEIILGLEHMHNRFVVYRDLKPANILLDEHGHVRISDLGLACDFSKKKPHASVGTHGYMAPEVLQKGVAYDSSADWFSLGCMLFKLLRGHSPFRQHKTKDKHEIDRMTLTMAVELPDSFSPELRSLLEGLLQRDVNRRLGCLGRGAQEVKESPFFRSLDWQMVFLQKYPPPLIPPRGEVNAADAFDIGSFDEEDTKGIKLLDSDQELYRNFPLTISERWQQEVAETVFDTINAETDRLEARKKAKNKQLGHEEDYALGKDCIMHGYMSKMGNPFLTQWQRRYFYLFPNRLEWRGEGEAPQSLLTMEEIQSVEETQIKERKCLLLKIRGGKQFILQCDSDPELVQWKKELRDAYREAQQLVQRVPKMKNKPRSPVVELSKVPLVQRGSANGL

[18] = molecular target: Phosphatidylinositol 4-phosphate 5-kinase type-1 gamma (Homo sapiens) (UniProt O60331); test: Inhibition of recombinant full-length human PIP5K1g at 10 uM using phosphatidylinositol 4-phosphate as substrate measured after 40 mins by fluorescence assay relative to control
[19] = molecular target: Myosin-IIIb (Homo sapiens) (UniProt Q8WXR4); test: Inhibition of recombinant full-length human MYO3B (1 to 326 residues) at 10 uM using RLGRDKYKTLRQIRQ as substrate measured after 40 mins in presence of [gamma33P]ATP by scintillation counting method relative to control
[20] = molecular target: Tyrosine-protein kinase Yes (Homo sapiens) (UniProt P07947); test: Inhibition of recombinant full-length human Yes at 10 uM using poly(Glu, Tyr) 4:1 as substrate measured after 40 mins in presence of [gamma33P]ATP by scintillation counting method relative to control
[21] = tested on: Transcriptional enhancer factor TEF-3 (Homo sapiens), Q15561 [C367A]; test: Binding affinity to TEAD4-YBD C367A mutant (unknown origin) assessed as change in melting temperature by SYPRO-dye based thermal shift assay
Transcriptional enhancer factor TEF-3 (Homo sapiens), Q15561 [C367A], sequence (Q15561 whole entry C367A): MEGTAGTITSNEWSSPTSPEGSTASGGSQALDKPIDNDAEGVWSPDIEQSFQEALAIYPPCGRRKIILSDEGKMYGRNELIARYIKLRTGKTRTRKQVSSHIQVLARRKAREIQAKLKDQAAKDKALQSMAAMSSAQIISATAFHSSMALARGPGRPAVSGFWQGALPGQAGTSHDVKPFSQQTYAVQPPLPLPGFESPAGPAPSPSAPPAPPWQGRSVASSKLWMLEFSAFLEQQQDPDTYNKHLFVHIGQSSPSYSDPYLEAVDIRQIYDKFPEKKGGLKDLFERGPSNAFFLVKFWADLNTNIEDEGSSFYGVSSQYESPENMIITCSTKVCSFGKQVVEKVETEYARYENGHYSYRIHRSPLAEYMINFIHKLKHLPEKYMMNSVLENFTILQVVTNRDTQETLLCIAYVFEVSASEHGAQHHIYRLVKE

[22] = molecular target: Serine/threonine-protein kinase N2 (Homo sapiens) (UniProt Q16513); test: Inhibition of human PRK2 (501 to end residues) at 10 uM using AKRRRLSSLRA as substrate measured after 40 mins in presence of [gamma33P]ATP by scintillation counting method relative to control
[23] = molecular target: Mitogen-activated protein kinase kinase kinase kinase 5 (Homo sapiens) (UniProt Q9Y4K4); test: Inhibition of recombinant full-length human MAP4K5 at 10 uM using myelin basic protein as substrate measured after 40 mins in presence of [gamma33P]ATP by scintillation counting method relative to control
[24] = molecular target: Protein kinase C iota type (Homo sapiens) (UniProt P41743); test: Inhibition of full-length recombinant human PKCiota at 10 uM using ERMRPRKRQGSVRRRV as substrate after 40 mins by in presence of [gamma33P]ATP by scintillation counting method relative to control

C=CS(=O)(=O)Nc1ccc(Cc2ccc3ccccc3c2)cc1
inhibition [1]: -8% | inhibition (Homo sapiens [2]): -2% | inhibition [3]: -7% | inhibition [4]: 2% | inhibition [5]: 3% | Activity [6]: Active | inhibition (Homo sapiens [7]): Dose-dependent effect | inhibition [8]: -3% | inhibition [9]: 2% | inhibition [10]: 16% | inhibition [11]: 3% | inhibition (Saccharomyces cerevisiae): 5% | inhibition [12]: 7% | inhibition [13]: -5% | inhibition [14]: 17% | inhibition [15]: 10% | inhibition [16]: 5% | inhibition [17]: -9% | inhibition [18]: -3% | inhibition [19]: 1% | inhibition [20]: 3% | ΔTm [21]: 1.2 °C | inhibition [22]: 4% | inhibition [23]: 2% | inhibition [24]: 5%
